Columns and labels:
[1] = biological target: T1, COX-2 (Mus musculus, UniProt Q05769); assay: COX-2 inhibition in isolated cells; format: cell-based; conditions: macrophage line J774.2 with endotoxin, read-out: COX-2 response, % of the controls with response variability; for remaining activity at 100 µg/mL: 0.1 mg/ml; for remaining activity at 1000 µg/mL: 1.0 mg/ml
T1 construct: endogenous in cells; host or cells: J774.2 macrophages, 12 h with endotoxin
T1 sequence (Q05769 18-604): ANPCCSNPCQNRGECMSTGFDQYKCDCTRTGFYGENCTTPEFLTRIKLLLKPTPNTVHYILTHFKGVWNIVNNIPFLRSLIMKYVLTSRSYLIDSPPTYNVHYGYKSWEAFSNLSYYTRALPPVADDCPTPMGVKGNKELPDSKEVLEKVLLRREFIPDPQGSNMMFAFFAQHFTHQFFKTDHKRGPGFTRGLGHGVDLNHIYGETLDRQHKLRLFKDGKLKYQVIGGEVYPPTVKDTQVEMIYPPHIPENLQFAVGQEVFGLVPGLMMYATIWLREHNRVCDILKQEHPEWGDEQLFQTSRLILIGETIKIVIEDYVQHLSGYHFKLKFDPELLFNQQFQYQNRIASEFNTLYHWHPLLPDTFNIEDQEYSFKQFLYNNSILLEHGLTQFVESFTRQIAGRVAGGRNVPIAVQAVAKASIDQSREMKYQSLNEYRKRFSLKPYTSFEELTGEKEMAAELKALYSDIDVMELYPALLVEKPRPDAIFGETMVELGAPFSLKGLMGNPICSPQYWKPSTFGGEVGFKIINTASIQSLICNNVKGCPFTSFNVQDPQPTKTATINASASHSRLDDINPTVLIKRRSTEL
Procedure: (§1) The activity inhibiting cyclo-oxygenase was determined in isolated cells. Endothelial cells of bovine aorta were used as a source of COX-1 and macrophage line J774.2 as a source of COX-2. The same conditions described by Mitchell et al. (Proc. Nat. Acad. Sci. 90, 11693, 1993) for growth and the viability test were used.
(§2) In brief, the cells were incubated for 30 minutes with scalar concentrations of the test product and the substrate (arachidonic acid) was then added and incubated for another 15 minutes. Enzyme activity was determined radioimmunologically by measuring the formation of 6-keto-PGF 1 alpha. In the case of cell lines J.774.2, the cells were incubated for 12 hours with endotoxin to promote COX-2 formation.
(§3) Study of the anti-cyclooxygenase (COX-1/COX-2) properties in isolated cells.
(§4) Response expressed as a % of the controls with relative response variability.

[2] = system: Swiss mice; assay: Analgesic activity (Hendershot et al.); format: in vivo; conditions: oral 3 to 30 mg/Kg in carboxymethylcellulose, natural product = 1.0
Procedure: (§6) Study of the anti-inflammatory (I) and analgesic (II) properties (pharmacodynamics) and gastrointestinal tolerance (III) (toxicity) of the test compounds after oral administration of doses ranging from 3 to 30 mg/Kg in carboxymethylcellulose suspensions and constructing dose-responsecurves. […] Activities are expressed as the potency ratio compared to the natural product used as a unit standard.

[3] = biological target: T2, COX-1 (Bos taurus, UniProt O62664); assay: COX-1 inhibition in isolated cells; format: cell-based, bovine; conditions: endothelial cells of bovine aorta, read-out: COX-1 response, % of the controls with response variability; for remaining activity at 1000 µg/mL: 1.0 mg/ml
T2 construct: Endothelial cells of bovine aorta were used as a source of COX-1; endogenous in cells; host or cells: bovine aortic endothelial cells
T2 sequence (O62664 25-600): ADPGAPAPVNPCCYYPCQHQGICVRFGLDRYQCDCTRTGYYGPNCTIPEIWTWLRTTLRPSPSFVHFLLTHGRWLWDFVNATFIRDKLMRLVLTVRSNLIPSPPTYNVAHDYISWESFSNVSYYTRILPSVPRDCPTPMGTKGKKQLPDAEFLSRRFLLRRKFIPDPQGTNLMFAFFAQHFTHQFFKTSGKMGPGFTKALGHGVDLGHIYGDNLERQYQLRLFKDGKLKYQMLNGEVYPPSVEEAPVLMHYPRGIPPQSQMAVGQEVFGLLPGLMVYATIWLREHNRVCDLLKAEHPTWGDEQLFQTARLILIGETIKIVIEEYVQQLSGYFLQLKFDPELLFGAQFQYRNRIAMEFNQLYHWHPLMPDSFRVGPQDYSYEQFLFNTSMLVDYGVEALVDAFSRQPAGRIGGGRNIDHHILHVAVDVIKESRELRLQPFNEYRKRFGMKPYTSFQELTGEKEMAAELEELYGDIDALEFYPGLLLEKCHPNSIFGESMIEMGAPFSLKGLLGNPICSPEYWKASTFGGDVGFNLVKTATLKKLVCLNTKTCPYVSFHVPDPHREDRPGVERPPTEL
Procedure: as §1, §2, §3, §4

[4] = system: carrageenin-oedema; assay: Anti-inflammatory activity, carrageenin-oedema method; format: in vivo; conditions: rats, oral 3 to 30 mg/Kg in carboxymethylcellulose; natural product = 1.0
Procedure: as §6

[5] = system: gastropathy; assay: Gastric tolerance, severity of induced gastropathy; conditions: rats, oral 3 to 30 mg/Kg in carboxymethylcellulose; natural product = 1.0
Procedure: Gastric tolerance was measured by oral administration to rats assessing the severity of the gastropathy induced in accordance with the criteria described by Wallace et al. (Am. J. Physiol. 259, G642, 1990).
Study of the anti-inflammatory (I) and analgesic (II) properties (pharmacodynamics) and gastrointestinal tolerance (III) (toxicity) of the test compounds after oral administration of doses ranging from 3 to 30 mg/Kg in carboxymethylcellulose suspensions and constructing dose-responsecurves.
Activities are expressed as the potency ratio compared to the natural product used as a unit standard. The nitroderivative is that of the shown examples, the natural reference compound is that shown as a reference.

[6] = system: isolated rat aorta; assay: Vasodilative activity, inhibition of contraction induced by epinephrine; conditions: in vitro, 10^-5 to 10^-7 molar range
Description: (§5) Example of the anti-cyclooxygenase (I), platelet anti-aggregating (II) and vasodilative (III) properties of the test compounds tested in vitro at concentrations in the molar range from 10^-5 to 10^-7 of the product in water/alcohol with the addition of small amounts of DMSO (dimethylsulphoxide). The activities are expressed as the potency ratio versus the natural product used as a unit standard, as stated in Table

[7] = system: cyclo-oxygenase; assay: Anti-cyclooxygenase activity; format: cell-based; conditions: for anti-cyclooxygenase (I), potency ratio versus natural product: in vitro, 10^-5 to 10^-7 molar range, natural product = 1.0
Procedure: as §1, §2, §5

[8] = system: nitrosynthetase (NOS); assay: Nitrosynthetase (NOS) activity induced by LPS in rats; format: in vivo, rat; conditions: oral, LPS only = 100
Procedure: The nitrosynthetase inhibition activity induced by lipopolysaccharide (LPS) was determined in rat neutrophils and stomach after administration of one of the test compounds and compared with that obtained after treatment of the suspension vehicle only.
In brief, Wistar rats fasting for 24 hours before treatment were orally administered the test product (10 mg/Kg) and intravenously (caudal vein) administered LPS (5 mg/Kg).
Four hours later the animals were sacrificed and the blood--for neutrophils isolation--and the stomach taken.
Enzyme activity was determined in accordance with the method described by Assreuy et al. (Br. J. Pharmacol. 108, 833, 1993).
Study of the inhibitory properties of the nitrosynthetase (NOS) activity induced by liposaccharide (LPS) in rats using oral doses ranging from 5 to 20 mg/Kg suspended in a carboxymethylcellulose base.

[9] = system: human platelets stimulated by thrombin; assay: Platelet anti-aggregating activity in vitro; format: cell-based; conditions: 10^-5 to 10^-7 molar range, natural product = 1.0
Description: as §5

| Structure (SMILES) | analgesic properties (II), potency ratio versus natural reference product [2] | anti-inflammatory properties (I), potency ratio versus natural reference product [4] | gastrointestinal tolerance (III) (toxicity), potency ratio versus natural reference product [5] | vasodilative (III), % of inhibitory action of the vasospasm induced by epinephrine [6] | also measured |
| --- | --- | --- | --- | --- | --- |
| CC(C(=O)OCCOCCO[N+](=O)[O-])c1ccc(-c2ccccc2)c(F)c1 (stereo not shown) [Example 1e] | 1.0 | 1.0 | 0.1 |  | remaining activity at 100 µg/mL [1]: 47 ± 4%; remaining activity at 1000 µg/mL [1]: 18 ± 2%; remaining activity at 1000 µg/mL [3]: 22 ± 3% |
| CC(C)Cc1ccc(C(C)C(=O)O)cc1 (stereo not shown) [IBUPROFEN, reference compound] | 1.0 | 1.0 | 1.0 |  |  |
| CC(=O)Oc1ccccc1C(=O)O [ASPIRIN, acetylsalicylic acid, reference compound] |  |  |  | inactive |  |
| O=C(O)Cc1ccccc1Nc1c(Cl)cccc1Cl [DICLOFENAC, reference compound] |  |  |  | inactive |  |
| CC(C)Cc1ccc(C(C)C(=O)OCCOCCO[N+](=O)[O-])cc1 (stereo not shown) [Example 1d] | 1.1 | 1.0 | 0.1 |  |  |
| CC(C(=O)OCCOCCO[N+](=O)[O-])c1ccc(C(=O)c2ccccc2)s1 (stereo not shown) [Example 1g] | 1.3 | 0.9 | 0.1 |  |  |
| O=C(Cc1ccccc1Nc1c(Cl)cccc1Cl)OCCCCO[N+](=O)[O-] [DICLOFENAC NITROXYBUTYLESTER, reference compound] |  |  |  |  | remaining activity at 100 µg/mL [1]: 68 ± 11%; remaining activity at 1000 µg/mL [1]: 41 ± 11%; direct inhibition of cyclo-oxygenase COX-1 and COX-2 ([7]; Table 4 data): capable of directly inhibiting cyclo-oxygenase COX-1 and COX-2; remaining activity at 100 µg/mL ([3]; 0.1 mg/ml): 45 ± 22%; remaining activity at 1000 µg/mL [3]: 24 ± 10%; NOS, neutrophils; inhibition relative to the group treated with LPS only [8]: 49; NOS, stomach; inhibition relative to the group treated with LPS only [8]: 37 |
| COc1ccc2cc(C(C)C(=O)OCCOCCO[N+](=O)[O-])ccc2c1 (stereo not shown) [Example 1h] | 1.3 | 1.3 | 0.1 |  |  |
| CC(C(=O)OCCCCO[N+](=O)[O-])c1cccc(C(=O)c2ccccc2)c1 (stereo not shown) [NITROXYBUTYLKETOPROFEN, reference compound] |  |  |  |  | NOS, neutrophils; inhibition relative to the group treated with LPS only [8]: 55; NOS, stomach; inhibition relative to the group treated with LPS only [8]: 35 |
| O=C(c1ccccc1)c1ccc2n1CCC2C(=O)OCCOCCO[N+](=O)[O-] (stereo not shown) [Example 1f] | 1.0 | 1.0 | 0.1 |  |  |
| O=C(c1ccccc1)c1ccc2n1CCC2C(=O)O (stereo not shown) [KETOROLAC, reference compound] | 1.0 | 1.0 | 1.0 |  |  |
| CC(C(=O)O)c1cccc(C(=O)c2ccccc2)c1 (stereo not shown) [KETOPROFEN, 2-(3-benzoyl)phenyl propionic acid, reference compound] |  |  |  | inactive |  |
| CC(C(=O)O)c1ccc(C(=O)c2ccccc2)s1 (stereo not shown) [TIAPROFENIC ACID, reference compound] | 1.0 | 1.0 | 1.0 |  |  |
| CC(C(=O)Oc1cccc(CO[N+](=O)[O-])c1)c1cccc(C(=O)c2ccccc2)c1 (stereo not shown) [Example 1c, 2-(3-benzoyl)phenylpropionate of 3-(nitroxymethyl)phenyl] | 1.2 | 1.0 | 0.1 | 50% | anti-cyclooxygenase (I), potency ratio versus natural product [7]: 1.2; NOS, neutrophils; inhibition relative to the group treated with LPS only [8]: 30; NOS, stomach; inhibition relative to the group treated with LPS only [8]: 40; platelet anti-aggregating (II), potency ratio versus natural product [9]: 1.8 |
| CC(C(=O)O)c1ccc(-c2ccccc2)c(F)c1 (stereo not shown) [FLURBIPROFEN, reference compound] | 1.0 | 1.0 |  |  |  |
| CC(=O)Oc1ccccc1C(=O)OCCOCCO[N+](=O)[O-] [Example 1a, 2-acetoxy-benzoate of 2-[2-(nitroxy)ethoxy]ethyl] | 1.1 | 1.2 | 0.2 | 60% | anti-cyclooxygenase (I), potency ratio versus natural product [7]: 1.5; platelet anti-aggregating (II), potency ratio versus natural product [9]: 3.0 |

— patent US5861426A, “Nitro compounds of the formula A-Xi -NO2 and their compositions having anti-inflammatory, analgesic and anti-thrombotic activities” (Nicox S.A., priority 1994, dated 1999)
